Here are results for 28 molecules from patent US20100144708A1, “HETEROCYCLIC COMPOUNDS CONTAINING NITROGEN ATOMS OR PHARMACEUTICALLY ACCEPTABLE SALTS THEREOF, PROCESS FOR THE PREPARATION THEREOF AND PHARMACEUTICAL COMPOSITION COMPRISING THE SAME FOR TREATMENT OF CANCER” (Korea Research Instititute of Bioscience and Biotechnology, priority 2006, published 2010).

Structures are written as SMILES.

What all share (type): cell-based, Human
One experiment concerns PC-3 (prostate cancer). Briefly: Test for inhibition of tumor cell growth (SRB), PC-3. The settings on record: Homo sapiens; 48 hours, SRB staining; read-out: GI50 PC-3 (prostate ancer). A digest of the protocol:
(§1)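 Cells seeded in RPMI 1640 with 5% FBS, exposed to compound (final […], units as printed) for 48 hours at 37° C with 5% CO2, including a time-zero plate. TCA-fixed, SRB-stained, absorbance at 540 nm as percent of control; GI50 is the 50% growth-inhibition concentration.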

Experiment [1] relates to MBA-MB-231 (breast cancer). Briefly: Test for inhibition of tumor cell growth (SRB), MBA-MB-231. The settings on record: Homo sapiens; 48 hours, SRB staining. A digest of the protocol: as §1
A general note: Sulforhodamine B stains cellular protein and so reports cell mass.

Another experiment deals with NUGC-3 (gastric cancer). Briefly: Test for inhibition of tumor cell growth (SRB), NUGC-3. The settings on record: Homo sapiens, NUGC-3; 48 hours, SRB staining. The method in brief:
as §1

A further experiment deals with ACHN (kidney cancer). As to the kind of experiment: Test for inhibition of tumor cell growth (SRB), ACHN. The settings on record: Homo sapiens, ACHN; 48 hours, SRB staining. The method in brief:
as §1

Broadly, the GI50 is the concentration giving 50% growth inhibition. For the molecule `CCCCCCCCCCCCCCS(=O)(=O)N1CC[N+](C)(CC)CC1` [Example 95, 1-ethyl-1-methyl-4-(tetradecane-1-sulfonyl)piperazin-1-ium iodide], the GI50 amounted to 0.35 µg/mL in the experiment with PC-3 (prostate cancer), 0.64 µg/mL in experiment [1], 2.24 µg/mL in the experiment on NUGC-3 (gastric cancer) and 0.46 µg/mL with ACHN (kidney cancer).

As to `CCCCCCCCCCS(=O)(=O)N1CC[N+](C)(Cc2ccc(F)cc2)CC1` [Example 86, 4-(decane-1-sulfonyl)-1-(4-fluorobenzyl)-1-methyl-piperazin-1-ium bromide], the GI50 with PC-3 (prostate cancer) is 0.88 µg/mL; in experiment [1], 4.48 µg/mL; with NUGC-3 (gastric cancer), 1.99 µg/mL; with ACHN (kidney cancer), 3.79 µg/mL.

For `CCCCCCCCCC(=O)N1CC[N+](C)(Cc2ccccc2)CC1` [Example 8, 1-benzyl-4-decanoyl-1-methyl-piperazin-1-ium bromide], the concentration for 50% growth inhibition (GI50) in the experiment with PC-3 (prostate cancer) was 0.8 µg/mL; in experiment [1], above 10 µg/mL; in the experiment with NUGC-3 (gastric cancer) it was above 10 µg/mL; in the experiment with ACHN (kidney cancer) it was above 10 µg/mL.

In the case of `CCCCCCCCCCCCCCCCCCCCCC(=O)N1CC[N+](CC)(Cc2ccccc2)CC1` [Example 37, 1-benzyl-4-docosanoyl-1-ethylpiperazin-1-ium bromide], the GI50 (in the experiment on PC-3 (prostate cancer); in experiment [1]; in the experiment with NUGC-3 (gastric cancer); in the experiment on ACHN (kidney cancer)) was above 10 µg/mL throughout.

Consider `CCCCCCCCCCCCCCCC(=O)N1CC[N+](CC)(Cc2cccc([N+](=O)[O-])c2)CC1` [Example 47, 1-ethyl-1-(3-nitrobenzyl)-4-palmitoylpiperazin-1-ium bromide], for which the GI50 was 4.57 µg/mL in the experiment with PC-3 (prostate cancer), above 10 µg/mL in experiment [1], 3.64 µg/mL in the experiment on NUGC-3 (gastric cancer) and 5.13 µg/mL in the experiment on ACHN (kidney cancer).

On to `CCCCCCCCCS(=O)(=O)N1CC[N+](C)(C)CC1` [Example 102, 1,1-dimethyl-4-(nonane-1-sulfonyl)piperazin-1-ium iodide], for which the 50% growth inhibitory concentration (GI50) (in the experiment on PC-3 (prostate cancer); in experiment [1]; in the experiment with NUGC-3 (gastric cancer); with ACHN (kidney cancer)) was above 10 µg/mL in each case.

With `CCCCCCCCCCCCS(=O)(=O)N1CC[N+](CC)(Cc2ccc(F)cc2)CC1` [Example 97, 4-(dodecane-1-sulfonyl)-1-ethyl-1-(4-fluorobenzyl)piperazin-1-ium bromide], the GI50 in the experiment with PC-3 (prostate cancer) turned out to be 0.7 µg/mL; in experiment [1], 1.43 µg/mL; in the experiment with NUGC-3 (gastric cancer) it was 0.66 µg/mL; in the experiment on ACHN (kidney cancer), 1.21 µg/mL.

In the case of `C=CCCCCCCCCC(=O)N1CC[N+](C)(Cc2ccccc2)CC1` [Example 44, 1-benzyl-1-methyl-4-undec-10-enoyl-piperazin-1-ium bromide], the GI50 in the experiment on PC-3 (prostate cancer) is 0.41 µg/mL; in experiment [1], above 10 µg/mL; with NUGC-3 (gastric cancer), above 10 µg/mL; in the experiment with ACHN (kidney cancer), above 10 µg/mL.

On to `C=CC[N+]1(CC)CCN(S(=O)(=O)CCCCCCCC)CC1` [Example 60, 1-allyl-1-ethyl-4-(octane-1-sulfonyl)piperazin-1-ium bromide], for which the GI50 (in the experiment with PC-3 (prostate cancer); in experiment [1]; in the experiment on NUGC-3 (gastric cancer); in the experiment with ACHN (kidney cancer)) was above 10 µg/mL each time.

For `CCCCCCCCCCCS(=O)(=O)N1CC[N+](C)(Cc2ccc(F)cc2)CC1` [Example 66, 1-(4-fluorobenzyl)-1-methyl-4-(undecane-1-sulfonyl)piperazin-1-ium bromide], the GI50 was 0.56 µg/mL in the experiment with PC-3 (prostate cancer), 1.47 µg/mL in experiment [1], 1.06 µg/mL in the experiment on NUGC-3 (gastric cancer) and 1.24 µg/mL in the experiment with ACHN (kidney cancer).

As for `CCCCCCCCCCCC(=O)N1CCC[N+](C)(Cc2ccc(OC)cc2)CC1` (stereo not shown) [Example 119, 4-dodecanoyl-1-(4-methoxybenzyl)-1-methyl-1,4-diazepan-1-ium chloride], the GI50 with PC-3 (prostate cancer) came out at 0.57 µg/mL; in experiment [1], 2.48 µg/mL; with NUGC-3 (gastric cancer) it was 0.36 µg/mL; with ACHN (kidney cancer), 1.48 µg/mL.

Take `C=CC[N+]1(C)CCN(S(=O)(=O)CCCCCCCCCCC)CC1` [Example 112, 1-allyl-1-methyl-4-(undecane-1-sulfonyl)piperazin-1-ium bromide]: the GI50 with PC-3 (prostate cancer) amounted to 0.43 µg/mL; in experiment [1], 1.75 µg/mL; in the experiment with NUGC-3 (gastric cancer), 1.75 µg/mL; in the experiment with ACHN (kidney cancer), 1.69 µg/mL.

In the case of `C=CC[N+]1(C)CCN(C(=O)CCCCCCCCCCCCC)CC1` [Example 13, 1-allyl-1-methyl-4-tetradecanoyl-piperazin-1-ium bromide], the GI50 in the experiment with PC-3 (prostate cancer) was 0.3 µg/mL; in experiment [1], 1.29 µg/mL; with NUGC-3 (gastric cancer), 0.5 µg/mL; with ACHN (kidney cancer) it was above 10 µg/mL.

For `C=CC[N+]1(C)CCCN(C(=O)CCCCCCCCCCC)CC1` (stereo not shown) [Example 118, 1-allyl-4-dodecanoyl-1-methyl-1,4-diazepan-1-ium bromide], the GI50 in the experiment on PC-3 (prostate cancer) was determined as 0.78 µg/mL; in experiment [1] it was 3.84 µg/mL; with NUGC-3 (gastric cancer) it was 0.87 µg/mL; in the experiment with ACHN (kidney cancer), 2.18 µg/mL.

For `CCCCCCCCCS(=O)(=O)N1CC[N+](C)(Cc2ccc(F)cc2)CC1` [Example 104, 1-(4-fluorobenzyl)-1-methyl-4-(nonane-1-sulfonyl)piperazin-1-ium bromide], the concentration for 50% growth inhibition (GI50) with PC-3 (prostate cancer) is 3.45 µg/mL; in experiment [1], above 10 µg/mL; in the experiment on NUGC-3 (gastric cancer) it was above 10 µg/mL; in the experiment on ACHN (kidney cancer), above 10 µg/mL.

Take `CCCCCCCCCCCC(=O)N1CC[N+](CC)(Cc2cccc([N+](=O)[O-])c2)CC1` [Example 53, 4-dodecanoyl-1-ethyl-1-(3-nitrobenzyl)piperazin-1-ium bromide]: the GI50 in the experiment on PC-3 (prostate cancer) turned out to be 0.57 µg/mL; in experiment [1], 3.95 µg/mL; in the experiment on NUGC-3 (gastric cancer), 3.52 µg/mL; in the experiment with ACHN (kidney cancer), 4.84 µg/mL.

With `CCCCCCCCCCCS(=O)(=O)N1CC[N+](CC)(CC)CC1` [Example 92, 1,1-diethyl-4-(undecane-1-sulfonyl)piperazin-1-ium iodide], the GI50 with PC-3 (prostate cancer) amounted to 0.45 µg/mL; in experiment [1] it was 1.62 µg/mL; with NUGC-3 (gastric cancer) it was 0.21 µg/mL; in the experiment with ACHN (kidney cancer), 0.81 µg/mL.

As to `CCCCCCCCCCS(=O)(=O)N1CC[N+](CC)(Cc2ccc(F)cc2)CC1` [Example 87, 4-(decane-1-sulfonyl)-1-ethyl-1-(4-fluorobenzyl)-piperazin-1-ium bromide], the GI50 is 1.25 µg/mL in the experiment on PC-3 (prostate cancer), above 10 µg/mL in experiment [1], 1.56 µg/mL with NUGC-3 (gastric cancer) and above 10 µg/mL with ACHN (kidney cancer).

For `C=CC[N+]1(CC)CCN(C(=O)CCCCCCCCC)CC1` [Example 11, 1-allyl-4-decanoyl-1-ethylpiperazin-1-ium bromide], the GI50 in the experiment with PC-3 (prostate cancer) was 3.07 µg/mL; in experiment [1] it was above 10 µg/mL; with NUGC-3 (gastric cancer), above 10 µg/mL; in the experiment on ACHN (kidney cancer) it was above 10 µg/mL.

`C=CC[N+]1(CC)CCN(S(=O)(=O)CCCCCCCCCCCC)CC1` [Example 85, 1-allyl-4-(dodecane-1-sulfonyl)-1-ethyl-piperazin-1-ium bromide]: the GI50 amounted to 0.41 µg/mL with PC-3 (prostate cancer), 1.01 µg/mL in experiment [1], 0.22 µg/mL in the experiment with NUGC-3 (gastric cancer) and 0.53 µg/mL in the experiment with ACHN (kidney cancer).

With `CCCCCCCCCCCCS(=O)(=O)N1CC[N+](C)(Cc2ccc(C)cc2)CC1` [Example 90, 4-(dodecane-1-sulfonyl)-1-methyl-1-(4-methylbenzyl)piperazin-1-ium bromide], the 50% growth inhibitory concentration (GI50) was found to be 1.57 µg/mL in the experiment on PC-3 (prostate cancer), 2.56 µg/mL in experiment [1], 1.98 µg/mL with NUGC-3 (gastric cancer) and 3.22 µg/mL in the experiment on ACHN (kidney cancer).

Regarding `CCCCCCCCCCCCS(=O)(=O)N1CC[N+](C)(CC)CC1` [Example 83, 4-(dodecane-1-sulfonyl)-1-ethyl-1-methyl-piperazin-1-ium iodide], the GI50 with PC-3 (prostate cancer) came out at 0.61 µg/mL; in experiment [1] it was 1.42 µg/mL; with NUGC-3 (gastric cancer), 0.45 µg/mL; in the experiment on ACHN (kidney cancer), 0.69 µg/mL.

For the molecule `CCCCCCCCCCS(=O)(=O)N1CC[N+](CC)(Cc2ccccc2)CC1` [Example 79, 1-benzyl-4-(decane-1-sulfonyl)-1-ethyl-piperazin-1-ium bromide], the GI50 with PC-3 (prostate cancer) is 0.85 µg/mL; in experiment [1] it was above 10 µg/mL; in the experiment on NUGC-3 (gastric cancer) it was 1.24 µg/mL; in the experiment with ACHN (kidney cancer) it was 4.41 µg/mL.

`CCCCCCCCS(=O)(=O)N1CC[N+](C)(Cc2ccccc2)CC1` [Example 62, 1-benzyl-1-methyl-4-(octane-1-sulfonyl)piperazin-1-ium bromide]: the 50% growth inhibitory concentration (GI50) (in the experiment on PC-3 (prostate cancer); in experiment [1]; with NUGC-3 (gastric cancer); in the experiment on ACHN (kidney cancer)) was above 10 µg/mL each time.

Take `CCCCCCCCCCCCCCS(=O)(=O)N1CC[N+](CC)(CC)CC1` [Example 94, 1,1-diethyl-4-(tetradecane-1-sulfonyl)piperazin-1-ium iodide]: the concentration for 50% growth inhibition (GI50) with PC-3 (prostate cancer) was 0.53 µg/mL; in experiment [1], 0.46 µg/mL; in the experiment on NUGC-3 (gastric cancer), 0.37 µg/mL; in the experiment on ACHN (kidney cancer) it was 0.31 µg/mL.

On to `C=CCCC[N+]1(CC)CCN(C(=O)CCCCCCCCCCCCCCC)CC1.[Br-]` [Example 24, 1-ethyl-4-hexadecanoyl-1-pent-4-enyl-piperazin-1-ium bromide], for which the 50% growth inhibitory concentration (GI50) in the experiment on PC-3 (prostate cancer) worked out at 0.45 µg/mL; in experiment [1], 0.76 µg/mL; with NUGC-3 (gastric cancer) it was 0.4 µg/mL; in the experiment with ACHN (kidney cancer) it was 0.78 µg/mL.

On to `CCCCCCCCCCCCS(=O)(=O)N1CC[N+](C)(Cc2cccc(C)c2)CC1` [Example 108, 4-(dodecane-1-sulfonyl)-1-methyl-1-(3-methylbenzyl)piperazin-1-ium bromide], for which the GI50 in the experiment with PC-3 (prostate cancer) stood at 0.45 µg/mL; in experiment [1], 1.19 µg/mL; with NUGC-3 (gastric cancer), 0.65 µg/mL; with ACHN (kidney cancer), 1.42 µg/mL.

With `C=CCC[N+]1(C)CCN(C(=O)CCCCCCCCCCCCCCC)CC1.[Br-]` [Example 20, 1-but-3-enyl-4-hexadecanoyl-1-methyl-piperazin-1-ium bromide], the GI50 in the experiment on PC-3 (prostate cancer) came out at 0.67 µg/mL; in experiment [1], 1.52 µg/mL; in the experiment with NUGC-3 (gastric cancer), 0.72 µg/mL; in the experiment with ACHN (kidney cancer), 1.58 µg/mL.
